# Measured values from patent publication US10662555B2, “Polyimide fiber and method for producing polyimide fiber” (I.S.T Corporation, priority 2016, dated 2020).
# What was measured:
# [1] = octanol-water partition coefficient (Log P) at 25° C., shake flask method; details: for logP: octanol/water; for Log P: octanol-water partition coefficient at 25° C.
# [2] = conjugate acid in water at 25° C.; cited from earlier work
SMILES,logP [1],Log P [1],also measured
"Cn1ccnc1 [1-methyl-1,3-diazole]",-0.19,,pKa [2]: 6.95
"Cc1ncc[nH]1 [2-methyl-1,3-diazole]",,0.24,
"CCN(CC)CC [Triethylamine, triethylamine]",1.45,,
"CCCN(CCC)CCC [Tripropylamine, tripropylamine]",,2.79,
CC(O)CN(CC(C)O)CC(C)O (centres unmarked) [triisopropanolamine],,,logP (physchem): -0.015
Cc1cccnc1 [β-picoline],,1.2,

# The next lines start with results.
logP [1],Log P [1],SMILES,also measured
0.11,,"Cc1nccn1C [1,2-dimethyl-1,3-diazole]",
,−1.5,"C1CNCCN1 [Piperazine, piperazine]",
> 2.79,>2.79,"CCCCN(CCCC)CCCC [Tributylamine, tributylamine]",
